Data published in US8148070B2, “Genetic polymorphisms associated with coronary events and drug response, methods of detection and uses thereof” (Celera Corporation, priority 2007, dated 2012).

Legend:
[1] = tested on: WOSCOPS patients; test: WOSCOPS nested case-control study: pravastatin vs placebo, primary CHD in subgroups defined by genotype; type: in vivo, human; details: for Case (patients with coronary event): pravastatin arm; for risk reduction (coronary events) / OR, Effect of Pravastatin on MI and CHD: pravastatin vs placebo
Description: In order to identify genetic markers associated with CHD (particularly MI, including recurrent MI) or the effect of statin treatment on CHD, samples were genotyped in two clinical trials: the Cholesterol and Recurrent Events (CARE) study (a randomized multicentral double-blinded trial on secondary prevention of MI with pravastatin (Pravachol®); Sacks et al., Am. J. Cardiol. 68: 1436-1446 [1991]), and the West of Scotland Coronary Prevention Study (WOSCOPS) study (a randomized multicentral double-blinded trial on primary prevention of CHD with pravastatin (Pravachol®); Shepherd et al., N Eng J Med 333 (20), pp. 1301-7, Nov. 16, 1995; Packard et al., N Eng J Med 343 (16), pp. 1148-55, Oct. 19, 2000).
The designs of the original WOSCOPS cohort and the nested case-control study have been described (Shepherd et al., N Eng J Med 333 (20), pp. 1301-7, Nov. 16, 1995; Packard et al., N Eng J Med 343 (16), pp. 1148-55, Oct. 19, 2000). The objective of the WOSCOPS trial was to assess pravastatin efficacy at reducing risk of primary MI or coronary death among Scottish men with hypercholesterolemia (fasting LDL cholesterol>155 mg/dl). Participants in the WOSCOPS study were 45-64 years of age and followed for an average of 4.9 years for coronary events. The nested case-control study included as cases all WOSCOPS patients who experienced a coronary event (confirmed nonfatal MI, death from CHD, or a revascularization procedure; N=580). Controls were age- and smoking-matched to unaffected patients.
In analyzing the CARE patients, statistical analysis was performed with SAS version 9. Cox proportional hazard models (Wald tests) were used in CARE to assess the association of genotype with both the risk of incident MI in the placebo arm and the effect of pravastatin on MI compared to placebo in subgroups defined by genotypes. In analyzing the WOSCOPS patients, a conditional logistic regression model was used in WOSCOPS given that the controls had been previously matched to the cases. The column entitled “On-trial MI” lists the number of patients who suffered a recurrent MI during the clinical trial period.
HR stands for Hazard Ratio, which is a concept similar to Odds Ratio (OR). The HR in event-free survival analysis is the effect of an explanatory variable on the hazard or risk of an event. For examples, it describes the likelihood of developing MI based on comparison of rate of coronary events between carriers of the certain allele and noncarriers; therefore, HR=1.5 would mean that carriers of the certain allele have 50% higher risk of coronary events during the study follow up than non-carriers. HR can also describe the effect of statin therapy on coronary events based on comparison of rate of coronary events between patient treated with statin and patient treated with placebo (or other statin) in subgroups defined by SNP genotype; therefore, HR=0.5 would mean that, for example, carriers of the certain allele, had 50% reduction of coronary events by statin therapy as compared to placebo. In Table 6, p interaction values were calculated. An interaction (or effect modification) is formed when a third variable modifies the relation between an exposure and outcome. […] Genotype and drug interaction is present when the effect of statins (incidence rate of disease in statin-treated group, as compared to placebo) differs in patients with different genotypes. The hCV3054799 risk allele predicted risk of MI in CARE and was associated with odds of CHD in WOSCOPS.

[2] = tested on: PROVE-IT patients; test: PROVE-IT (PROVE IT-TIMI 22) genetic study: high-dose atorvastatin vs standard-dose pravastatin, death or major cardiovascular events by KIF6 719Arg carrier status; type: in vivo, human
Method: Patients were followed for 18 to 36 months, with an average follow-up of 24 months.
Of the 1,724 patients who met the criteria listed above, 1344 (78.0%) were male. […] This study was approved by institutional review boards of the Brigham and Women's Hospital and all participating centers.
KIF6 genotypes were determined using allele—specific real-time PCR as previously described. Cox proportional hazard models (Wald tests) were used to assess the effect of atorvastatin-treatment on incident CHD in the KIF6 719Arg carriers and noncarriers. Continuous variables tested were age, baseline LDL-C, and baseline HDL-C levels. Categorical variables tested were smoking (current versus non-current), hypertension, and baseline diabetes. All reported p values are two-sided.

Structure (SMILES): CC[C@H](C)C(=O)O[C@H]1C[C@H](O)C=C2C=C[C@H](C)[C@H](CC[C@@H](O)C[C@@H](O)CC(=O)O)[C@H]21 [Pravastatin, pravastatin]
- OR, Adjusted (CHD, pravastatin vs placebo) ([1]; AA (noncarriers), matched and adjusted): 0.91
- OR, Matched (CHD, pravastatin vs placebo) ([1]; AA (noncarriers), matched for age and smoking): 0.94
- Case (patients with coronary event) ([1]; AA, 213 controls): 81 number of patients
- OR, Matched (CHD, pravastatin vs placebo) ([1]; GG + GA (719Arg carriers), cases and controls matched for age and smoking): 0.50
- OR, Adjusted (CHD, pravastatin vs placebo) ([1]; GG + GA (719Arg carriers), matched and adjusted for hypertension, diabetes, BMI, LDL-C, HDL-C): 0.50
- Case (patients with coronary event) ([1]; GG + GA, 330 controls): 108 number of patients
- risk reduction (coronary events) ([1]; carriers of the KIF6 719Arg allele, significant): 50%
- risk reduction (coronary events) ([1]; noncarriers, insignificant): 9%
- OR, Effect of Pravastatin on MI and CHD ([1]; hCV3054808 genotype AA): 0.55
- OR, Effect of Pravastatin on MI and CHD ([1]; hCV3054808 genotype AC): 0.52
- OR, Effect of Pravastatin on MI and CHD ([1]; hCV3054808 genotype CC): 0.89
- OR, Effect of Pravastatin on MI and CHD ([1]; hCV3054813 genotype CC): 0.64
- OR, Effect of Pravastatin on MI and CHD ([1]; hCV3054813 genotype CT): 0.51
- OR, Effect of Pravastatin on MI and CHD ([1]; hCV3054813 genotype TT): 0.95
- OR, Effect of Pravastatin on MI and CHD ([1]; hCV29992177 genotype AA): 0.71
- OR, Effect of Pravastatin on MI and CHD ([1]; hCV29992177 genotype GA): 0.54
- OR, Effect of Pravastatin on MI and CHD ([1]; hCV29992177 genotype GG): 2.55
- OR, Effect of Pravastatin on MI and CHD ([1]; hCV30225864 genotype CC): 0.67
- OR, Effect of Pravastatin on MI and CHD ([1]; hCV30225864 genotype CT): 0.54
- OR, Effect of Pravastatin on MI and CHD ([1]; hCV30225864 genotype TT): 0.78
- On-trial CHD ([2]; ArgArg + ArgTrp, totals 509 (atorvastatin), 502 (pravastatin)): 123 Number of patients
- On-trial CHD ([2]; TrpTrp, totals 359 (atorvastatin), 352 (pravastatin)): 80 Number of patients
